From BindingDB's records for doi:10.1016/j.bioorg.2016.07.010 (Universiti Teknologi Mara (Uitm), 2016) come the findings set out here.

Thymidine phosphorylase, sequence (B7MNI9 whole entry): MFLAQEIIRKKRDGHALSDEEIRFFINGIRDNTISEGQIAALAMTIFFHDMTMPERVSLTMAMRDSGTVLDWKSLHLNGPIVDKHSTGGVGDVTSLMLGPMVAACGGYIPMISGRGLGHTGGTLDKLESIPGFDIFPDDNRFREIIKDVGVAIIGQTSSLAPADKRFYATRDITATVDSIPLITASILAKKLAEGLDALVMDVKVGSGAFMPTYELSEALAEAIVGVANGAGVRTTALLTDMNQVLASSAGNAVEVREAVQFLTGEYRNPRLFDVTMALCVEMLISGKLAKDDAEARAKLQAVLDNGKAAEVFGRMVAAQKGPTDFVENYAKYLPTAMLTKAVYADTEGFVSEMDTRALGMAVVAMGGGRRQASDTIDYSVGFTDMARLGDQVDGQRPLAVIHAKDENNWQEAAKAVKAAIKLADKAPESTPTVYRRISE

This test deals with Thymidine phosphorylase (Escherichia coli O45:K1 (strain S88 / ExPEC), UniProt B7MNI9). The test is described as follows: Thymidine Phosphorylase Assay. The conditions noted are these: pH 7.4; 25 °C. How it is done:
The Thymidine phosphorylase/PD-ECGF (E. coli) activity was determined by measuring the absorbance at 290 nm spectrophotometrically. In brief, total reaction mixture of 200 uL contained 145 uL of potassium phosphate buffer (pH 7.4), 30 uL of enzyme (E. coli) at concentration 0.05 and 0.002 U, respectively, were incubated with 5 uL of test materials for 10 min at 25 °C in microplate reader. After incubation, preread at 290 nm was taken to deduce the absorbance of substrate particles. Substrate (20 uL, 1.5 mM), was dissolved in potassium phosphate buffer, was immediately added to plate and continuously read after 10, 20, and 30 min in microplate reader (spectra max, molecular devices, CA, USA). All assays were performed in triplicate.
For orientation: IC50 means the concentration that gives 50% inhibition. Read a high IC50 as lower potency. `Fc1cccc(/C=N/Nc2cnc3ccccc3n2)c1` [(E)-2-(2-(3-fluorobenzylidene)hydrazinyl)quinoxaline (2)] showed an IC50 of 66.1 µM.

`Oc1ccccc1/C=N/Nc1cnc2ccccc2n1` [(E)-2-((2-(quinoxalin-2-yl)hydrazono)methyl)phenol (28)] yielded an IC50 of 37.2 µM.

`Oc1ccc(O)c(/C=N/Nc2cnc3ccccc3n2)c1` [(E)-2-((2-(quinoxalin-2-yl)hydrazono)methyl)benzene-1,4-diol (16)] showed an IC50 of 35.5 µM.

The compound `COc1ccc(/C=N/Nc2cnc3ccccc3n2)c(O)c1` [(E)-5-methoxy-2-((2-(quinoxalin-2-yl)hydrazono)methyl)phenol (20)] showed an IC50 of 34.4 µM.

With `COc1ccc(O)c(/C=N/Nc2cnc3ccccc3n2)c1` [(E)-4-methoxy-2-((2-(quinoxalin-2-yl)hydrazono)methyl)phenol (24)], the IC50 turned out to be 36.3 µM.

`Oc1ccc(/C=N/Nc2cnc3ccccc3n2)c(O)c1` [(E)-4-((2-(quinoxalin-2-yl)hydrazono)methyl)benzene-1,3-diol (15)] registered an IC50 of 33.4 µM.

Take `Oc1cccc(/C=N/Nc2cnc3ccccc3n2)c1` [(E)-3-((2-(quinoxalin-2-yl)hydrazono)methyl)phenol (12)]: it took 63.2 µM to reach half-maximal inhibition (IC50).

`Clc1ccccc1/C=N/Nc1cnc2ccccc2n1` [(E)-2-(2-(2-chlorobenzylidene)hydrazinyl)quinoxaline (4)] yielded an IC50 of 37.6 µM.

Regarding `C(=N\Nc1cnc2ccccc2n1)/c1c[nH]c2ccccc12` [(E)-2-(2-((1H-indol-3-yl)methylene)hydrazinyl)quinoxaline (27)], the IC50 is 84.3 µM.

For the compound `O=c1[nH]c(=O)c2cc[nH]c2[nH]1` [1,7-Dihydro-pyrrolo[2,3-d]pyrimidine-2,4-dione], the IC50 worked out at 38.7 µM.

In turn, `Oc1cc(O)c(/C=N/Nc2cnc3ccccc3n2)c(O)c1` [(E)-5-((2-(quinoxalin-2-yl)hydrazono)methyl)benzene-2,4,6-triol (19)] came in with an IC50 of 9.1 µM.

For the compound `Fc1ccc(/C=N/Nc2cnc3ccccc3n2)cc1` [(E)-2-(2-(4-fluorobenzylidene)hydrazinyl)quinoxaline (3)], it took 58.1 µM to reach half-maximal inhibition (IC50).

The compound `COc1ccc(/C=N/Nc2cnc3ccccc3n2)cc1O` [(E)-2-methoxy-5-((2-(quinoxalin-2-yl)hydrazono)methyl)phenol (21)] came in with an IC50 of 46.9 µM.

For the compound `Oc1cc(O)c(/C=N/Nc2cnc3ccccc3n2)cc1O` [(E)-5-((2-(quinoxalin-2-yl)hydrazono)methyl)benzene-1,2,4-triol (18)], the IC50 is 3.2 µM.

In turn, `Clc1cccc(/C=N/Nc2cnc3ccccc3n2)c1` [(E)-2-(2-(3-chlorobenzylidene)hydrazinyl)quinoxaline (5)] returned an IC50 of 93.5 µM.

Regarding `Fc1ccccc1/C=N/Nc1cnc2ccccc2n1` [(E)-2-(2-(2-fluorobenzylidene)hydrazinyl)quinoxaline (1)], the half-maximal inhibitory concentration (IC50) was found to be 33.6 µM.

In the case of `Oc1ccc(/C=N/Nc2cnc3ccccc3n2)cc1O` [(E)-4-((2-(quinoxalin-2-yl)hydrazono)methyl)benzene-1,2-diol (17)], the concentration for half-maximal inhibition (IC50) is 8.6 µM.

`Oc1ccc(/C=N/Nc2cnc3ccccc3n2)cc1` [(E)-4-((2-(quinoxalin-2-yl)hydrazono)methyl)phenol (13)] yielded an IC50 of 48.6 µM.

With `Oc1cccc(/C=N/Nc2cnc3ccccc3n2)c1O` [(E)-3-((2-(quinoxalin-2-yl)hydrazono)methyl)benzene-1,2-diol (14)], 15.4 µM corresponded to half-maximal inhibition (IC50).
